“Also recorded” adds a separate entry of the source.
Key:
[1] = biological target: T1, α-Glcase (Yeast Maltase) (Saccharomyces cerevisiae, UniProt P53341); assay: Glycosidase inhibition (Ki), yeast maltase α-glucosidase; format: biochemical; details: for Ki, α-Glcase (Yeast Maltase): mean ± SD, three independent determinations, competitive inhibition
T1 construct: purchased
From the text: (§1) The inhibitory properties of the new sp^2-IGLs 1–12 and the α-C-allyl ONJ and OGJ glycosides 15, and 24 were examined against a panel of commercial glycosidases that included the α-glucosidases maltase (Saccharomyces cerevisiae) and amyloglucosidase (Aspergillus niger), the β-glucosidases from almonds and bovine liver, α-galactosidase from green coffee beans, β-galactosidase from Escherichia coli, α-mannosidase from Jack beans, and β-mannosidase from Helix pomatia. The corresponding inhibition constant (Ki) values are collected in Table 1.
(§2) Inhibition constant (Ki) values were determined by spectrophotometrically measuring the residual hydrolytic activities of the glycosidases against the respective o- (for β-galactosidase from E. coli) or p-nitrophenyl α- or β-D-glycopyranoside (for other glycosidases) in the presence of the iminosugars. Each assay was performed in phosphate buffer or phosphate-citrate buffer (for α- or β-mannosidase and amyloglucosidase) at the optimal pH for the enzymes. The reactions were initiated by addition of the enzyme to a solution of the substrate in the absence or presence of various inhibitor concentrations. The mixture was incubated for 10–30 min at 37 °C or 55 °C (for amyloglucosidase) and the reaction was quenched by addition of 1 M Na2CO3. Reaction times were appropriate to obtain 10–20% conversion of the substrate in order to achieve linear rates. The absorbance of the resulting mixture was determined at 405 nm. Approximate value of Ki was determined from the slope of Dixon plots using a fixed concentration of substrate (around the Km value for the different glycosidases) and various concentrations of inhibitor. Full Ki determinations and enzyme inhibition mode were determined from the slope of Lineweaver–Burk plots and double reciprocal analysis. Representative examples of Dixon and Lineweaver–Burk plots are shown in the Supplementary materials.

[2] = biological target: T2, β-Glcase (Bovine Liver) (Bos taurus, UniProt F1MNT6); assay: Glycosidase inhibition (Ki), bovine liver β-glucosidase; format: biochemical; details: mean ± SD, three independent determinations; competitive inhibition
T2 sequence (F1MNT6 1-469): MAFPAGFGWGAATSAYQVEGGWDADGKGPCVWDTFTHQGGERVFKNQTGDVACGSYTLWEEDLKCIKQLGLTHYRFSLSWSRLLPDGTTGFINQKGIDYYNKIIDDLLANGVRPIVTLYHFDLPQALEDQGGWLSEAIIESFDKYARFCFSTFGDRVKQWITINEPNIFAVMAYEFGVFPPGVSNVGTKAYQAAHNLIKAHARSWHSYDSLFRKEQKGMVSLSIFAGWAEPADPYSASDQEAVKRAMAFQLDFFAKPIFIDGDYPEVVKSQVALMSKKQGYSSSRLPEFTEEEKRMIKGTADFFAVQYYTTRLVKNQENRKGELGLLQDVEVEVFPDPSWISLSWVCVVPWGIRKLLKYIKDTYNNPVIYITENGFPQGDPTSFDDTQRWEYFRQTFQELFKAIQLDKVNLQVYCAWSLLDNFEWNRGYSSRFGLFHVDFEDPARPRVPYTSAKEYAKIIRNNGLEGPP
From the text: as §1, §2

[3] = system: human solid tumor cell lines A549, SW1573 (lung), HBL-100, T-47D (breast), HeLa (cervix), WiDr (colon); assay: Antiproliferative activity (SRB assay) against a panel of six human solid tumor cell lines; format: cell-based; details: for GI50: read-out: GI50 (concentration to achieve 50% growth inhibition), 48 h, tested 1 to 100 μM, only values below 100 μM significant
Procedure: The antiproliferative activity of all the sp^2-iminosugar C-glycosides (1–12) was evaluated against a panel of six representative human solid tumor cell lines including lung (A549 and SW1573), breast (HBL-100, T-47D), cervix (HeLa), and colon (WiDr).
All reagents were used as purchased from commercial suppliers without further purification. The human solid tumor cell lines A549 (lung), HBL-100 (breast), HeLa (cervix), SW1573 (lung), T-47D (breast), and WiDr (colon) were used in this study. These cell lines were a kind gift from Prof. G. J. Peters (VU Medical Center, Amsterdam, The Netherlands).
Cells were inoculated onto 96-well microtiter plates in a volume of 100 μL per well at densities of 2500 (A549, HBL-100, HeLa, and SW1573) and 5000 (T-47D and WiDr) cells per well, based on their doubling times. Compounds were initially dissolved in DMSO at 400 times the desired final maximum test concentration. Control cells were exposed to an equivalent concentration of DMSO (0.25% v/v, negative control). Each agent was tested in triplicate at different dilutions in the range of 1 to 100 μM. The drug treatment started on day 1 after plating. Drug incubation times were 48 h, after which cells were precipitated with 25 μL ice-cold TCA (50% w/v) and fixed for 60 min at 4 °C. Then the SRB assay was performed. The optical density (OD) of each well was measured at 530 nm, using BioTek’s PowerWave XS Absorbance Microplate Reader. Values were corrected for background OD from wells only containing medium. The antiproliferative activity for each compound, expressed as GI50 values, was calculated according to NCI formulas.

[4] = system: intracellular amastigotes of Leishmania donovani MHOM/ET/67/HU3 line; assay: Susceptibility of intracellular Leishmania amastigotes (luciferase assay); format: cell-based; details: L. donovani in THP-1 macrophages, 72 h at 37 °C, threshold 20 μM
Procedure: The leishmanicidal activity of all the synthesized sp^2-iminosugar C-glycosides (1–12) was evaluated against intracellular amastigotes of Leishmania donovani MHOM/ET/67/HU3 line with luciferase gene integrated into the parasite genome. […] A strong influence of the nature of the lipid chain α-linked to the pseudoanomeric position of the bicyclic core in the sp^2-IGLs was inferred from the corresponding data. […] The longer-chain sp^2-IGLs 2 and 8 were over the 20 μM concentration threshold in this assay. In the sulfone series, the results evidenced some disparity between the ONJ and OGJ epimers.
Macrophage-differentiated THP-1 cells, which are considered a suitable model for human macrophages, were plated at a density of 3 × 10^4 or 3 × 10^5 macrophages/well in 96-well white polystyrene microplates or 24-well tissue culture chamber slides, respectively, and were infected at a macrophage/parasite ratio of 1:10 with L. donovani promastigotes. Twenty-four hours after infection at 35 °C and 5% CO2, extracellular parasites were removed by washing with serum-free medium. Infected cell cultures were then incubated at different compound concentrations in RPMI 1640 medium plus 10% iFBS at 37 °C with 5% CO2 for 72 h. To determine the susceptibility of L. donovani LUC amastigotes, infected macrophages maintained in 96-well plates were lysed and then luminescence intensity was measured as indicative of the intracellular parasite growth, using the Luciferase Assay System Kit (Promega, Madison, Wis.) according to the instructions of the supplier. To determine the susceptibility of L. donovani HU3 amastigotes, infected macrophages maintained in 24-well plates were fixed for 30 min at 4 °C with 2.5% paraformaldehyde phosphate-buffered saline (PBS; 1.2 mM KH2PO4, 8.1 mM Na2HPO4, 130 mM NaCl, and 2.6 mM KCl adjusted to pH 7) and permeabilized with 0.1% Triton X-100 in PBS for 30 min. Intracellular parasites and macrophages were detected by nuclear staining with ProLong® Gold antifade reagent plus DAPI (Invitrogen). The percentage infection and mean number of amastigotes from infected macrophages were determined with 200 macrophages/well.

[5] = system: THP-1 cells; assay: Cellular toxicity (MTT assay) in THP-1 cells; format: cell-based, human; details: for EC50: Homo sapiens, THP-1, MTT assay, 72 h at 37 °C
Procedure: Human myelomonocytic cell line THP-1 was grown at 37 °C and 5% CO2 in RPMI-1640 supplemented with 10% iFBS, 2 mM […], 100 U/mL penicillin, and 100 μg/mL streptomycin; 3 × 10^4 cells/well in 96-well plates were differentiated to macrophages with 20 ng/mL of PMA treatment for 48 h followed by 24 h of culture in fresh medium. Cellular toxicity of all compounds was determined using the colorimetric MTT-based assay after incubation at 37 °C for 72 h in the presence of increasing concentrations of compounds [71].

[6] = system: human lung fibroblast MRC-5 cells; assay: Cellular toxicity (MTT assay) in MRC-5 cells; format: cell-based; details: for EC50: Homo sapiens, MRC5, MTT assay, 72 h at 37 °C; for SI (EC50 MRC-5/EC50 parasite): Selectivity Index
[7] = biological target: T3, green coffee bean α-galactosidase (Coffea arabica, UniProt Q42656); assay: Glycosidase inhibition, green coffee bean α-galactosidase; format: biochemical, green coffee beans; details: 1 mM concentration
T3 construct: purchased
From the text: as §1
Inhibition constant (Ki) values were determined by spectrophotometrically measuring the residual hydrolytic activities of the glycosidases against the respective o- (for β-galactosidase from E. coli) or p-nitrophenyl α- or β-D-glycopyranoside (for other glycosidases) in the presence of the iminosugars. […] The absorbance of the resulting mixture was determined at 405 nm. Approximate value of Ki was determined from the slope of Dixon plots using a fixed concentration of substrate (around the Km value for the different glycosidases) and various concentrations of inhibitor. Full Ki determinations and enzyme inhibition mode were determined from the slope of Lineweaver–Burk plots and double reciprocal analysis. […]

[8] = system: MCF-7, breast; parameters: method as in PMID 24124558, PMID 28145580; details: Figure 1; cited from earlier work
[9] = system: MDA-MB-231, breast; parameters: method as in PMID 24124558, PMID 28145580; details: Figure 1; cited from earlier work
[10] = system: intracellular amastigotes of Leishmania donovani (amastigotes HU3); parameters: method as in doi:10.1039/C5RA02627J; details: cited from earlier work; for EC50: intracellular amastigotes of Leishmania donovani
[11] = system: A549, lung; parameters: method as in doi:10.1039/C5RA02627J; details: Figure 1; cited from earlier work
[12] = system: different human tumor cell lines; parameters: method as in doi:10.1039/C5RA02627J; details: read-out: GI50 against different human tumor cell lines; cited from earlier work
[13] = system: T-47D, breast; parameters: method as in doi:10.1039/C5RA02627J; details: Figure 1; cited from earlier work

T1 sequence (P53341 whole entry): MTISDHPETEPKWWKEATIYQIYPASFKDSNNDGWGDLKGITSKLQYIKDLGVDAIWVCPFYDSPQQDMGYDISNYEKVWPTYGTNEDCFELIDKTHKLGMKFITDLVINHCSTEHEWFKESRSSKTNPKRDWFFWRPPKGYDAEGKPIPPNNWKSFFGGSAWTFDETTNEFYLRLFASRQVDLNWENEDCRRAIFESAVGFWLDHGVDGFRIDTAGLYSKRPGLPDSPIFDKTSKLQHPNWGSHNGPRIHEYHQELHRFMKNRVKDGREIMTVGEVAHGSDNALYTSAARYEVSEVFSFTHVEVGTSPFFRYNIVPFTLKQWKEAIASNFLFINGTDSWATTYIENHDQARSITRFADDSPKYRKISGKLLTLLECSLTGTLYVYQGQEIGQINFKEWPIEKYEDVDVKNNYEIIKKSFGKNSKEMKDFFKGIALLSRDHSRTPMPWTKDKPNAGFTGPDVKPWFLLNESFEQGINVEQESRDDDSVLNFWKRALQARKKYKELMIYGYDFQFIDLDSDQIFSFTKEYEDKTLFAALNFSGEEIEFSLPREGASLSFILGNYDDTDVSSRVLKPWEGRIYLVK
T3 sequence (Q42656 16-378): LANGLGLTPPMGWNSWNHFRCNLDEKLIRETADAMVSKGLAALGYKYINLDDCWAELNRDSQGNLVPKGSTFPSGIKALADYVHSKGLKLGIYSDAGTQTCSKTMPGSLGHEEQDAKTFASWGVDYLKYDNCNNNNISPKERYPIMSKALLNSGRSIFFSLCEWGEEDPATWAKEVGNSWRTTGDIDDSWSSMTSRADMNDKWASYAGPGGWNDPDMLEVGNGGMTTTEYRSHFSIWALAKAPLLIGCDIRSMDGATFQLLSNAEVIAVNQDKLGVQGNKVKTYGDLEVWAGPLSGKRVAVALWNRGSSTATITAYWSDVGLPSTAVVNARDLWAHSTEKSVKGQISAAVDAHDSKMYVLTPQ

CCCCCCCCSCCC[C@@H]1[C@H](O)[C@@H](O)[C@@H](O)[C@H]2COC(=O)N12 [Compound 7, (1R)-1-[3-(Octylthio)propyl]-5N,6O-oxomethylidene-1-deoxygalactonojirimycin]
Ki, α-Glcase (Yeast Maltase) [1]: n.i. | Ki, β-Glcase (Bovine Liver) [2]: n.i. | GI50 [3]: 14 to 54 µM | EC50 [4]: 10.6 ± 1.51 µM | EC50 [5]: 128 ± 5.71 µM | SI (EC50 THP-1/EC50 parasite) ([5]; Selectivity Index): 12.06 | EC50 [6]: 60.4 ± 2.8 µM | SI (EC50 MRC-5/EC50 parasite) [6]: 5.72

C=CC[C@@H]1[C@H](O)[C@@H](O)[C@@H](O)[C@H]2COC(=O)N12 [Compound 24, (1R)-1-Allyl-5N,6O-oxomethylidene-1-deoxygalactonojirimycin]
Ki, α-Glcase (Yeast Maltase) [1]: n.i. | Ki, β-Glcase (Bovine Liver) [2]: n.i. | Inhibition of green coffee bean α-galactosidase [7]: Neither epimeric OGJ sp^2-IGLs 7–12 nor α-allyl OGJ glycoside 24 behaved as inhibitors

CC(C)(C)OC(=O)NCCSCCC[C@@H]1[C@H](O)[C@@H](O)[C@@H](O)[C@H]2COC(=O)N12 [Compound 9, (1R)-1-[3-(N-tert-Butoxycarbonylaminoethylthio)propyl]-5N,6O-oxomethylidene-1-deoxygalactonojirimycin]
Ki, α-Glcase (Yeast Maltase) [1]: n.i. | Ki, β-Glcase (Bovine Liver) [2]: n.i. | GI50 (concentration to achieve 50% growth inhibition) ([3]; 48 h, tested 1 to 100 μM, only values below 100 μM significant): did not show any significant antiproliferative activity; also recorded: did not display significant antiproliferative activity | GI50 [3]: > 100 µM | EC50 [4]: 13.4 ± 1.13 µM | EC50 [5]: > 200 µM | EC50 [6]: 140 ± 17.3 µM | SI (EC50 MRC-5/EC50 parasite) [6]: 10.44

CCCCCCCCS[C@@H]1[C@H](O)[C@@H](O)[C@H](O)[C@H]2COC(=O)N21 [OS-ONJ]
IC50 [8]: 37 µM | IC50 [9]: 35 µM | EC50 [10]: 73.3 µM

CCCCCCCC[C@@H]1[C@H](O)[C@@H](O)[C@H](O)[C@H]2COC(=O)N12 [OC-ONJ]
IC50 [8]: 26 µM | IC50 [9]: 44 µM

CCCCCCCCCCCCS[C@@H]1[C@H](O)[C@@H](O)[C@H](O)[C@H]2COC(=O)N21 [DS-ONJ]
GI50 [11]: 16 µM | Improvement of leishmanicidal potency relative to OS-ONJ [10]: up to 5 fold | EC50 [10]: 20.5 µM | GI50 [12]: < 20 µM

CCCCCCCCCCCCS[C@@H]1[C@H](O)[C@@H](O)[C@@H](O)[C@H]2COC(=O)N21 [DS-OGJ]
GI50 [13]: 18 µM | EC50 [10]: 15.5 µM

C=CC[C@@H]1[C@H](O)[C@@H](O)[C@H](O)[C@H]2COC(=O)N12 [Compound 15, (1R)-1-Allyl-5N,6O-oxomethylidene-1-deoxynojirimycin]
Ki [1]: 79 ± 8 µM | Ki, β-Glcase (Bovine Liver) [2]: n.i.
